Laboratory results reported in patent US8822440B2, “Inhibiting cyclin D polypeptides” (Mayo Foundation for Medical Education and Research, priority 2006, dated 2014).

Test system: CD138+ myeloma cells
Experiment: Unsorted myeloma patient bone marrow, flow cytometry: CD138+ myeloma cells
Assay type: cell-based, human
Experimental: Flow cytometry. HMCL were treated as indicated and then washed in cold phosphate-buffered saline (PBS) and resuspended in buffer containing AnnexinV-FITC and propidium iodide (BD Biosciences, San Jose, Calif.) for 15 minutes at room temperature. Cells (10^5) were subsequently diluted and analyzed immediately by flow cytometry (FACScan, BD Biosciences, San Jose, Calif.) using CellQuest software. Patient bone marrow specimens were prepared and analyzed in a similar fashion using AnnexinV-FITC and anti-CD138-PE (BD Biosciences, San Jose, Calif.).
As mouse embryos that lack any D-cyclins eventually die from hematopoietic failure (Kozar et al., Cell, 118, 477-91 (2004)), the bone marrow might be predicted to be one of the most sensitive non-malignant tissue to be affected by drugs targeting cyclin D expression. Unsorted bone marrow samples from myeloma patients were treated with kinetin riboside to assess the relative cytotoxicity of this drug on malignant versus non-malignant marrow cells. Bone marrow samples were first processed to remove non-nucleated red cells and were then treated for 48 hours with kinetin riboside (5 μM).

OC[C@H]1O[C@@H](n2cnc3c(NCc4ccco4)ncnc32)[C@H](O)[C@@H]1O [kinetin riboside, N6-Furfuryladenosine]
kill of patient CD138+ myeloma cells (5 μM, 48 hours): 92%
effect on primary CD138+ myeloma cells (patient bone marrow, 48 hours): most CD138+ cells become apoptotic
activity against CD138+ myeloma cells compared with non malignant hematopoietic cells (unsorted myeloma patient bone marrow samples): selective activity
